Several values for one entry are separate records, joined by “and”; a condition that tells them apart may be missing. Equal entries are not always repeated.
How the values were obtained:
Test in all cases: Herbicidal mixtures for weed control in transplanted paddy rice (in-water application, visual % injury)
Format in all cases: in vivo
[1] = test system: Marsilea crenata PRESL (MASCR)
In short: (§1)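 Paddy flood, greenhouse ~29/26° C; weeds at 2nd–3rd true leaf stage. Herbicide stocks (acetone/2.5% crop oil concentrate) injected into water; solvent blank controls. Visual % injury, 0–100, at 3 weeks.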

Cyperus species (CYPSS) = settings: for % Injury CYPES Ob: CYPES = Cyperus esculentus
In short: as §1

[2] = test system: Leptochloa chinensis (L.) NEES (LEFCH)
In short: as §1

[3] = test system: Fimbristylis miliacea (L.) VAHL (FIMMI)
In short: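 Weeds sown in flooded puddled mineral soil (pH ~7.3–7.8, ~1.0% organic matter) and treated at second–third true leaf stage by injecting acetone/2.5% Agri-dex stock into the paddy water. A, C and D dosed as acid equivalent, partner herbicides as active ingredient. Injury scored visually after 3 weeks in greenhouse, 0–100% versus untreated plants.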

[4] = Quinclorac 140 g/ha alone (Compound A Methyl half)
[5] = Quinclorac 140 g/ha alone (Compound A TEA half)
[6] = Compound A Methyl 17.5 g/ha alone
[7] = Compound A Methyl 35 g/ha alone

Q: Which “% Injury MASCR Ob” value [1, 4] does the source give for O=C(O)c1c(Cl)ccc2cc(Cl)cnc12 [Quinclorac] here?
A: Its value is 0%.

Q: And the “% Injury MASCR Ob” value [1, 5]?
A: The value was 0%.

Q: What about the “% Injury CYPES Ob” value (Cyperus species (CYPSS); [4]) of the same compound?
A: Its value is 0%.

Q: And the “% Injury CYPES Ob” value (Cyperus species (CYPSS); [5])?
A: Its value is 0%.

Q: What about the “% Injury LEFCH Ob” value [2, 4] of the same compound?
A: The value was 0%.

Q: And the “% Injury LEFCH Ob” value [2, 5]?
A: Its value is 0%.

Q: And the “% Injury FIMMI Ob” value [3, 4]?
A: Its value is 0%.

Q: What about the “% Injury FIMMI Ob” value [3, 5] of the same compound?
A: Its value is 0%.

Q: Which “% Injury MASCR Ob” value ([1]; Compound A TEA 35 g/ha alone) does the source give for COc1c(Cl)ccc(-c2cc(N)c(Cl)c(C(=O)O)n2)c1F [Compound A TEA, 4-amino-3-chloro-6-(4-chloro-2-fluoro-3-methoxyphenyl)pyridine-2-carboxylic acid] here?
A: Its value is 60%.

Q: And the “% Injury CYPES Ob” value (Cyperus species (CYPSS); Compound A TEA 17.5 g/ha alone)?
A: The value was 30%.

Q: What about the “% Injury CYPES Ob” value (Cyperus species (CYPSS); Compound A TEA 17.5 g/ha alone (Table 112)) of the same compound?
A: The value was 30%.

Q: And the “% Injury CYPES Ob” value (Cyperus species (CYPSS); Compound A TEA 35 g/ha alone (Table 112))?
A: The value was 70%.

Q: And the “% Injury Ob” value (Cyperus species (CYPSS); CYPES, 35 g/ha alone)?
A: Its value is 20% and 25%.

Q: And the “% Injury Ob” value (Cyperus species (CYPSS); CYPES, 70 g/ha alone)?
A: Its value is 50%.

Q: What about the “% Injury Ob” value (Cyperus species (CYPSS); CYPIR, 35 g/ha alone) of the same compound?
A: The value was 10%.

Q: And the “% Injury Ob” value (Cyperus species (CYPSS); CYPIR, 70 g/ha alone)?
A: The value was 20%.

Q: And the “% Injury Ob” value ([2]; 35 g/ha alone)?
A: Its value is 80%.

Q: What about the “% Injury Ob” value ([2]; 70 g/ha alone) of the same compound?
A: The value was 99%.

Q: What about the “% Injury LEFCH Ob” value ([2]; Compound A TEA 17.5 g/ha alone) of the same compound?
A: The value was 10%.

Q: And the “% Injury LEFCH Ob” value ([2]; Compound A TEA 35 g/ha alone)?
A: Its value is 15%.

Q: And the “% Injury Ob” value ([3]; 17.5 g/ha alone)?
A: The value was 30%.

Q: What about the “% Injury Ob” value ([3]; 35 g/ha alone) of the same compound?
A: The value was 0%.

Q: What about the “% Injury Ob” value ([3]; 70 g/ha alone) of the same compound?
A: Its value is 0%.

Q: What about the “% Injury FIMMI Ob” value ([3]; Compound A TEA 17.5 g/ha alone) of the same compound?
A: The value was 30%.

Q: Which “% Injury MASCR Ob” value [1, 6] does the source give for COC(=O)c1nc(-c2ccc(Cl)c(OC)c2F)cc(N)c1Cl [Compound A Methyl, 4-amino-3-chloro-6-(4-chloro-2-fluoro-3-methoxyphenyl)pyridine-2-carboxylic acid methyl ester] here?
A: Its value is 0%.

Q: And the “% Injury MASCR Ob” value [1, 7]?
A: Its value is 50%.

Q: What about the “% Injury CYPES Ob” value (Cyperus species (CYPSS); [6]) of the same compound?
A: Its value is 50%.

Q: And the “% Injury CYPES Ob” value (Cyperus species (CYPSS); Compound A Methyl 35 g/ha alone (Table 112))?
A: The value was 60%.

Q: What about the “% Injury Ob” value (Cyperus species (CYPSS); CYPES, 4.38 g/ha alone) of the same compound?
A: The value was 0%.

Q: What about the “% Injury Ob” value (Cyperus species (CYPSS); CYPES, 8.75 g/ha alone) of the same compound?
A: The value was 15%.

Q: And the “% Injury Ob” value ([2]; 8.75 g/ha alone)?
A: The value was 0%.

Q: And the “% Injury Ob” value ([2]; 17.5 g/ha alone)?
A: The value was 0%.

Q: And the “% Injury Ob” value ([2]; 35 g/ha alone)?
A: Its value is 0%.

Q: What about the “% Injury LEFCH Ob” value [2, 6] of the same compound?
A: The value was 10%.

Q: What about the “% Injury LEFCH Ob” value [2, 7] of the same compound?
A: The value was 20%.

Q: And the “% Injury Ob” value ([3]; 17.5 g/ha alone)?
A: The value was 20%.

Q: And the “% Injury FIMMI Ob” value [3, 6]?
A: The value was 20%.
